In patent US20220380375A1, “SUBSTITUTED AROMATIC FUSED RING DERIVATIVE AND COMPOSITION COMPRISING SAME, AND USE THEREOF” (Shenzhen TargetRx, Inc., priority 2019, published 2022):

Key:
Format in all cases: cell-based
[1] = biological target: T1, Ba/F3 KIF5B-RET cells (Homo sapiens, UniProt P07949); experiment: Cytotoxicity assay (CellTiter-Glo), Ba/F3 KIF5B-RET; settings: CellTiter-Glo, 72 hrs; read-out: Ba/F3 KIF5B-RET IC50
T1 construct: Ba/F3 KIF5B-RET IC50 (nM); other: CellTiter-Glo, 72 hrs; fused on or other part: P33176 (Kinesin-1 heavy chain)
T1 sequence (P07949 whole entry, change not shown, the tested form may be a part): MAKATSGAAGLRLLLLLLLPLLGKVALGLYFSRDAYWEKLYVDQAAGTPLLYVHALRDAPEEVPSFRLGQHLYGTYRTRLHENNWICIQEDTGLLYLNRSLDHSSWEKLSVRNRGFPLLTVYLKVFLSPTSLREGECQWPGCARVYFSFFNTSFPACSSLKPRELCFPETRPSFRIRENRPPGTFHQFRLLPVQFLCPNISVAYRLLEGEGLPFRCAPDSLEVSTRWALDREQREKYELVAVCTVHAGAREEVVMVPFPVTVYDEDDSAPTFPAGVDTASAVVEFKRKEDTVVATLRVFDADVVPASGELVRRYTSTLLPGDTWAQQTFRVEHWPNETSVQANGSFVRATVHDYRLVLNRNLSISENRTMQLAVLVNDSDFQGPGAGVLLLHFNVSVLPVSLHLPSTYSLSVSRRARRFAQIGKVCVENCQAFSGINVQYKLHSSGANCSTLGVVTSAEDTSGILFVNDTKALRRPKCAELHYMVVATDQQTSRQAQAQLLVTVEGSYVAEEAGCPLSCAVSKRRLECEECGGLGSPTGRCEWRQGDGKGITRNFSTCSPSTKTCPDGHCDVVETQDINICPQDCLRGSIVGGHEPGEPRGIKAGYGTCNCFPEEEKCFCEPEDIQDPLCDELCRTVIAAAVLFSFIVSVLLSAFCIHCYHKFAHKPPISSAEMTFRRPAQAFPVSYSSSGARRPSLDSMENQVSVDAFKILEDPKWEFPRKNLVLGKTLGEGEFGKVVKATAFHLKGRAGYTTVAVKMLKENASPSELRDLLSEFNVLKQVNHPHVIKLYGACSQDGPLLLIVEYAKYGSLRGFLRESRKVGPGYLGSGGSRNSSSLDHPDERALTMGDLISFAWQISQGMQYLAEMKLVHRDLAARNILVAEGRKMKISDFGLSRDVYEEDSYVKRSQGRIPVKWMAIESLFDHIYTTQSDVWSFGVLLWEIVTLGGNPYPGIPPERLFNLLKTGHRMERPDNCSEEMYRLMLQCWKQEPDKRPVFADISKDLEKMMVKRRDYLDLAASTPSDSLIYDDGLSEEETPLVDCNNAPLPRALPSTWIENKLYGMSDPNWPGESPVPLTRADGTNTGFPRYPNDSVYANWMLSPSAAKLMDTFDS
Method: (§1) Inhibitory effects of example compounds on the activity of Ba/F3 parental generation, Ba/F3 KIF5B-RET, Ba/F3 KIF5B-RET^V804M, Ba/F3 KIF5B-RET^V804L, Ba/F3 KIF5B-RET^G810R, Ba/F3 FLT3-ITD, Ba/F3 FLT3-ITD^D835Y, Ba/F3 FLT3-ITD^F691L cells were determined.
(§2) Materials and reagents: fetal bovine serum FBS (GIBCO, Cat #10099141), CellTiter-Glo® Luminescent Cell Viability Assay kit (Promega, Cat #G7572), 96-well black-wall clear flat-bottom plate (Corning®, Cat #3603).
(§3) 1. Cells in the logarithmic growth phase were harvested and counted with a […]. Cell viability was detected by a trypan blue exclusion method, ensuring that cell viability was 90% or more; 2. Cell concentration was adjusted to about 3000 cells/well; 90 μl of cell suspension was added to each well of the 96-well plate; 3. The cells in the 96-well plate were incubated overnight under the condition of 37° C., 5% CO2, and 95% humidity.
(§4) 1. A series of compound solutions were formulated by 3.16-fold serial dilution starting from a concentration of 10 μM, resulting in 9 concentrations. 10 μL of the compound solutions were added in each well of the 96-well plate seeded with cells in triplicate for each compound concentration; 2. The cells in the 96-well plate added with compounds were further incubated under the condition of 37° C., 5% CO2, and 95% humidity for 72 hrs, and then CTG analysis was carried out.
(§5) 1. CTG reagent was thawed, and the cell plate was equilibrated at room temperature for 30 minutes; 2. An equal volume […] of CTG solution was added to each well; 3. The cell plate was shaken on an orbital shaker for 5 minutes to lyse the cells; 4. The cell plate was placed at RT for 20 minutes to stabilize the luminescence signal; 5. Luminescence value was read.
(§6) Data were Analyzed by GraphPad Prism 5.0 Software, and Fitted by Nonlinear S-Curve Regression to obtain a dose-response curve, from which IC50 values were calculated.
(§7) Cell survival rate (%)=(luminescence value of drug to be tested−luminescence value of culture medium control)/(luminescence value of cell control−luminescence value of culture medium control)×100%.

[2] = test system: Ba/F3 KIF5B-RET cells; experiment: as above; settings: ratio of Ba/F3 parental IC50 to Ba/F3 KIF5B-RET IC50
Method: as §1, §2, §3, §4, §5, §6, §7

[3] = biological target: T2, Ba/F3 KIF5B-RET^V804M cells (Homo sapiens, UniProt P07949, V804M, cells depend on it); experiment: Cytotoxicity assay (CellTiter-Glo), Ba/F3 KIF5B-RET V804M; settings: CellTiter-Glo, 72 hrs; read-out: Ba/F3 KIF5B-RET^V804M IC50
T2 construct: Ba/F3 KIF5B-RET^V804M IC50 (nM); other: CellTiter-Glo, 72 hrs; fused on or other part: P33176 (Kinesin-1 heavy chain)
T2 sequence (P07949 whole entry V804M, the tested form may be a part): as the sequence (P07949 whole entry, change not shown, the tested form may be a part) above, with V804M counted along it
Method: as §1, §2, §3, §4, §5, §6, §7

[4] = test system: Ba/F3 KIF5B-RET^V804M cells; experiment: as above; settings: ratio of Ba/F3 parental IC50 to Ba/F3 KIF5B-RET^V804M IC50
Method: as §1, §2, §3, §4, §5, §6, §7

[5] = biological target: T3, Ba/F3 KIF5B-RET^G810R cells (Homo sapiens, UniProt P07949, G810R, cells depend on it); experiment: Cytotoxicity assay (CellTiter-Glo), Ba/F3 KIF5B-RET G810R; settings: CellTiter-Glo, 72 hrs; read-out: Ba/F3 KIF5B-RET^G810R IC50
T3 construct: Ba/F3 KIF5B-RET^G810R IC50 (nM); other: CellTiter-Glo, 72 hrs; fused on or other part: P33176 (Kinesin-1 heavy chain)
T3 sequence (P07949 whole entry G810R, the tested form may be a part): as the sequence (P07949 whole entry, change not shown, the tested form may be a part) above, with G810R counted along it
Method: as §1, §2, §3, §4, §5, §6, §7

[6] = test system: Ba/F3 KIF5B-RET^G810R cells; experiment: as above; settings: ratio of Ba/F3 parental IC50 to Ba/F3 KIF5B-RET^G810R IC50
Method: as §1, §2, §3, §4, §5, §6, §7

[7] = biological target: T4, Ba/F3 FLT3-ITD^F691L cells (Homo sapiens, UniProt P36888, F691L, cells depend on it, form not given); experiment: Cytotoxicity assay (CellTiter-Glo), Ba/F3 FLT3-ITD F691L; settings: CellTiter-Glo, 72 hrs; read-out: Ba/F3 FLT3-ITD^F691L IC50
T4 construct: Ba/F3 FLT3-ITD^F691L IC50 (nM); other: CellTiter-Glo, 72 hrs
T4 sequence (P36888 1-993 F691L): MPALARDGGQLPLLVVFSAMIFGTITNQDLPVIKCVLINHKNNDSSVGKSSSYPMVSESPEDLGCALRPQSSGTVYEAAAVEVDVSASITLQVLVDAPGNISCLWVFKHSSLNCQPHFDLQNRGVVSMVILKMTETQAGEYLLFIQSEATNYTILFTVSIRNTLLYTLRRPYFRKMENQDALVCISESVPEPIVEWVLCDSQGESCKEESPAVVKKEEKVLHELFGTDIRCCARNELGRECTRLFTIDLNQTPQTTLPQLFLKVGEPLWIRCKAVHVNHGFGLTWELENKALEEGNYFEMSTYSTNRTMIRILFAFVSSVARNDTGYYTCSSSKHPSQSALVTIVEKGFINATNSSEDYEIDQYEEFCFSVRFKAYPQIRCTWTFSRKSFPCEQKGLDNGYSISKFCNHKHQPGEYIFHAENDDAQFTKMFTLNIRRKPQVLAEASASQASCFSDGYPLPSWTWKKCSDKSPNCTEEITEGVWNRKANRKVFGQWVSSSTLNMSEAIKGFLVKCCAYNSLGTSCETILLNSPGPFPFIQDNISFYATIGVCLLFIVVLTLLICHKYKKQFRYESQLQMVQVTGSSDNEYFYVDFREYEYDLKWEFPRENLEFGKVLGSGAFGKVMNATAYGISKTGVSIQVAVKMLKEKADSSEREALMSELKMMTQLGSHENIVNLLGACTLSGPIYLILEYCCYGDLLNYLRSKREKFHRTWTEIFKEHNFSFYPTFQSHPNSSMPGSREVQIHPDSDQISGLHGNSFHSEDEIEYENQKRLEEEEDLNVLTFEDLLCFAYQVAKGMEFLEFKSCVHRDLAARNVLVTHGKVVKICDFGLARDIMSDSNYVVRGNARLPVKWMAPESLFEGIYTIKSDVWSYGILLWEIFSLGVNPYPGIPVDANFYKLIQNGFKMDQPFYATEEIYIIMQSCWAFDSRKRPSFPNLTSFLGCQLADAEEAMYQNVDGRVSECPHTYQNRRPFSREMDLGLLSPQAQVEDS
Method: as §1, §2, §3, §4, §5, §6, §7

[8] = test system: Ba/F3 FLT3-ITD^F691L cells; experiment: as above; settings: ratio of Ba/F3 parental IC50 to Ba/F3 FLT3-ITD^F691L IC50
Method: as §1, §2, §3, §4, §5, §6, §7

| SMILES | GI50 [1] [nM] | Ba/F3 KIF5B-RET Selectivity on parental generation [2] | GI50 [3] [nM] | Ba/F3 KIF5B-RET^V804M Selectivity on parental generation [4] | GI50 [5] [nM] | Ba/F3 KIF5B-RET^G810R Selectivity on parental generation [6] | GI50 [7] [nM] | Ba/F3 FLT3-ITD^F691L Selectivity on parental generation [8] |
| --- | --- | --- | --- | --- | --- | --- | --- | --- |
| CC(C)n1nc(-c2ccc(NC(=O)Nc3cc(C(F)(F)F)ccc3F)cc2)c2c(N)ncnc21 [AD80, reference compound] | 2.19 | 370.7 | 10.8 | 75.2 | 7.88 | 103.0 | 11.8 | 68.8 |
| CC(C)n1nc(-c2ccc(CC(=O)Nc3cc(C(C)(C)C(F)(F)F)on3)cc2)c2c(N)ncnc21 [Compound T-1, 2-(4-(4-amino-1-isopropyl-1H-pyrazolo[3,4-d]pyrimidin-3-yl)phenyl)-N-(5-(1,1,1-trifluoro-2-methylprop-2-yl)isoxazol-3-yl)acetamide] | 0.15 | 10802.6 | 5.65 | 286.8 | 2.64 | 613.8 | 7.7 | 210.4 |
| CC(C)n1nc(-c2ccc(NC(=O)Nc3cc(C(C)(C)C(F)(F)F)on3)cc2)c2c(N)ncnc21 [Compound T-2, 1-(4-(4-amino-1-isopropyl-1H-pyrazolo[3,4-d]pyrimidin-3-yl)phenyl)-3-(5-(1,1,1-trifluoro-2-methylprop-2-yl)isoxazol-3-yl)urea] | 0.16 | 2111.4 | 2.64 | 128.0 | 2.98 | 113.4 | 2.93 | 115.3 |
| CC(C)n1cc(-c2ccc(CC(=O)Nc3cc(C(C)(C)C(F)(F)F)on3)cc2)c2c(N)ncnc21 [Compound T-3, 2-(4-(4-amino-7-isopropyl-7H-pyrrolo[2,3-d]pyrimidin-5-yl)phenyl)-N-(5-(1,1,1-trifluoro-2-methylprop-2-yl)isoxazol-3-yl)acetamide] | 0.58 | 1249.0 | 3.21 | 225.7 | 3.84 | 188.7 | 0.97 | 746.8 |
| CC(C)c1nc(-c2ccc(CC(=O)Nc3cc(C(C)(C)C(F)(F)F)on3)cc2)c2c(N)nccn12 [Compound T-4, 2-(4-(8-amino-3-isopropylimidazo[1,5-a]pyrazin-1-yl)phenyl)-N-(5-(1,1,1-trifluoro-2-methylprop-2-yl)isoxazol-3-yl)acetamide] | 1.56 | 449.4 | 9.53 | 73.6 | 25.5 | 27.5 | 16.6 | 42.2 |
| CC(C)c1cc(-c2ccc(CC(=O)Nc3cc(C(C)(C)C(F)(F)F)on3)cc2)c2c(N)ncnn12 [Compound T-5, 2-(4-(4-amino-7-isopropylpyrrolo[2,1-f][1,2,4]triazin-5-yl)phenyl)-N-(5-(1,1,1-trifluoro-2-methylprop-2-yl)isoxazol-3-yl)acetamide] | 2.88 | 1660.8 | 12.9 | 370.8 | 13.6 | 351.7 | 11.4 | 419.6 |
| CC(C)n1nc(-c2ccc(CC(=O)Nc3cc(C(C)(C)C(F)(F)F)on3)c(F)c2)c2c(N)ncnc21 [Compound T-6, 2-(4-(4-amino-1-isopropyl-1H-pyrazolo[3,4-d]pyrimidin-3-yl)-2-fluorophenyl)-N-(5-(1,1,1-trifluoro-2-methylprop-2-yl)isoxazol-3-yl)acetamide] | 0.31 | 6759.6 | 9.9 | 211.7 | 2.92 | 717.6 | 6.26 | 334.7 |
| CC(C)n1nc(-c2ccc(CC(=O)Nc3cc(C(C)(C)C(F)(F)F)on3)cn2)c2c(N)ncnc21 [Compound T-7, 2-(6-(4-amino-1-isopropyl-1H-pyrazolo[3,4-d]pyrimidin-3-yl)pyridin-3-yl)-N-(5-(1,1,1-trifluoro-2-methylprop-2-yl)isoxazol-3-yl)acetamide] | 4.61 | 71.2 | 3.42 | 95.9 | 6.92 | 47.4 | 3.22 | 101.9 |
| CC(C)n1nc(-c2ccc(CC(=O)Nc3cc(C(C)(C)C(F)(F)F)no3)cc2)c2c(N)ncnc21 [Compound T-8, 2-(4-(4-amino-1-isopropyl-1H-pyrazolo[3,4-d]pyrimidin-3-yl)phenyl)-N-(3-(1,1,1-trifluoro-2-methylprop-2-yl)isoxazol-5-yl)acetamide] | 1.03 | 3569.9 | 3.6 | 1021.4 | 2.39 | 1538.5 | 6.28 | 585.5 |
